Laboratory results taken from PubChem BioAssay (NCI).
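At the GI50, growth is halved. TGI is the concentration that stops growth completely.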

Tests used:
Experiment in all cases: NCI anticancer screen, dose series, 384-well format
[1] = test system: CCRF-CEM leukemia
[2] = test system: NCI-H322M lung
[3] = test system: HOP-62 NSCLC
[4] = test system: DU-145 prostate
[5] = test system: T-47D breast
[6] = test system: BT-549 breast
[7] = test system: RPMI-8226 leukemia
[8] = test system: MDA-MB-435 melanoma
[9] = test system: NCI-H522 lung
[10] = test system: NCI-H23 lung
[11] = test system: NCI/ADR-RES ovarian
[12] = test system: OVCAR-8 ovarian
[13] = test system: SF-295 CNS
[14] = test system: SF-268 CNS
[15] = test system: PC-3 prostate
[16] = test system: LOX IMVI melanoma
[17] = test system: A549 NSCLC
[18] = test system: UACC-257 melanoma
[19] = test system: OVCAR-5 ovarian
[20] = test system: SW-620 colon
[21] = test system: A498 renal
[22] = test system: SNB-19 CNS
[23] = test system: TK-10 renal
[24] = test system: U251 glioblastoma
[25] = test system: IGROV1 ovarian
[26] = test system: M14 melanoma
[27] = test system: OVCAR-3 ovarian
[28] = test system: SK-OV-3 ovarian
[29] = test system: CAKI-1 renal
[30] = test system: SNB-75 CNS
[31] = test system: ACHN renal
[32] = test system: NCI-H226 lung
[33] = test system: UO-31 renal
[34] = test system: EKVX NSCLC
[35] = test system: HS 578T breast
[36] = test system: HL-60(TB) leukemia
[37] = test system: SK-MEL-5 melanoma
[38] = test system: HOP-92 NSCLC
[39] = test system: SR leukemia
[40] = test system: SN12C renal
[41] = test system: MDA-MB-231 breast
[42] = test system: NCI-H460 NSCLC
[43] = test system: MALME-3M melanoma
[44] = test system: MDA-MB-468 breast
[45] = test system: HCC-2998 colon
[46] = test system: HCT-15 colon
[47] = test system: COLO 205 colon
[48] = test system: KM12 colon
[49] = test system: HT29 colon
[50] = test system: HCT-116 colon
[51] = test system: OVCAR-4 ovarian
[52] = test system: SF-539 CNS
[53] = test system: MCF7 breast
[54] = test system: MOLT-4 leukemia
[55] = test system: RXF 393 renal
[56] = test system: UACC-62 melanoma
[57] = test system: 786-0 renal
[58] = test system: SK-MEL-28 melanoma
[59] = test system: K-562 leukemia

SMILES: CCN(c1cc(-c2ccc(CN3CCOCC3)cc2)cc(C(=O)NCc2c(C)cc(C)[nH]c2=O)c1C)C1CCOCC1
- GI50 [1]: > 100 µM
- TGI [1]: > 100 µM
- GI50 [2]: > 100 µM
- TGI [2]: > 100 µM
- GI50 [3]: > 100 µM
- TGI [3]: > 100 µM
- GI50 [4]: > 100 µM
- TGI [4]: > 100 µM
- GI50 [5]: > 100 µM
- TGI [5]: > 100 µM
- GI50 [6]: > 37.1 µM
- TGI [6]: > 63.9 µM
- GI50 [7]: 1.39 µM
- TGI [7]: > 100 µM
- GI50 [8]: > 100 µM
- TGI [8]: > 100 µM
- GI50 [9]: > 100 µM
- TGI [9]: > 100 µM
- GI50 [10]: > 100 µM
- TGI [10]: > 100 µM
- GI50 [11]: > 100 µM
- TGI [11]: > 100 µM
- GI50 [12]: > 100 µM
- TGI [12]: > 100 µM
- GI50 [13]: > 100 µM
- TGI [13]: > 100 µM
- GI50 [14]: > 100 µM
- TGI [14]: > 100 µM
- GI50 [15]: > 100 µM
- TGI [15]: > 100 µM
- GI50 [16]: > 51.5 µM
- TGI [16]: > 100 µM
- GI50 [17]: > 76.9 µM
- TGI [17]: > 100 µM
- GI50 [18]: > 100 µM
- TGI [18]: > 100 µM
- GI50 [19]: > 100 µM
- TGI [19]: > 100 µM
- GI50 [20]: > 100 µM
- TGI [20]: > 100 µM
- GI50 [21]: > 81.8 µM
- TGI [21]: > 100 µM
- GI50 [22]: > 100 µM
- TGI [22]: > 100 µM
- GI50 [23]: > 100 µM
- TGI [23]: > 100 µM
- GI50 [24]: > 100 µM
- TGI [24]: > 100 µM
- GI50 [25]: > 91.5 µM
- TGI [25]: > 100 µM
- GI50 [26]: > 100 µM
- TGI [26]: > 100 µM
- GI50 [27]: > 100 µM
- TGI [27]: > 100 µM
- GI50 [28]: > 100 µM
- TGI [28]: > 100 µM
- GI50 [29]: > 69.4 µM
- TGI [29]: > 100 µM
- GI50 [30]: > 100 µM
- TGI [30]: > 100 µM
- GI50 [31]: > 100 µM
- TGI [31]: > 100 µM
- GI50 [32]: > 100 µM
- TGI [32]: > 100 µM
- GI50 [33]: > 100 µM
- TGI [33]: > 100 µM
- GI50 [34]: > 100 µM
- TGI [34]: > 100 µM
- GI50 [35]: > 100 µM
- TGI [35]: > 100 µM
- GI50 [36]: > 49.7 µM
- TGI [36]: > 85.8 µM
- GI50 [37]: > 100 µM
- TGI [37]: > 100 µM
- GI50 [38]: > 90.3 µM
- TGI [38]: > 100 µM
- GI50 [39]: > 75.7 µM
- TGI [39]: > 100 µM
- GI50 [40]: > 100 µM
- TGI [40]: > 100 µM
- GI50 [41]: > 100 µM
- TGI [41]: > 100 µM
- GI50 [42]: > 100 µM
- TGI [42]: > 100 µM
- GI50 [43]: > 100 µM
- TGI [43]: > 100 µM
- GI50 [44]: > 100 µM
- TGI [44]: > 100 µM
- GI50 [45]: > 100 µM
- TGI [45]: > 100 µM
- GI50 [46]: 98.3 µM
- TGI [46]: > 100 µM
- GI50 [47]: > 100 µM
- TGI [47]: > 100 µM
- GI50 [48]: > 100 µM
- TGI [48]: > 100 µM
- GI50 [49]: > 100 µM
- TGI [49]: > 100 µM
- GI50 [50]: > 77.3 µM
- TGI [50]: > 100 µM
- GI50 [51]: > 100 µM
- TGI [51]: > 100 µM
- GI50 [52]: > 100 µM
- TGI [52]: > 100 µM
- GI50 [53]: > 100 µM
- TGI [53]: > 100 µM
- GI50 [54]: 68.4 µM
- TGI [54]: > 100 µM
- GI50 [55]: > 60.3 µM
- TGI [55]: > 100 µM
- GI50 [56]: > 100 µM
- TGI [56]: > 100 µM
- GI50 [57]: > 85.4 µM
- TGI [57]: > 100 µM
- GI50 [58]: > 100 µM
- TGI [58]: > 100 µM

SMILES: Cc1nc2ccc(NC(=O)CCNC(=O)CCCc3ccc(CC(C(=O)O)C(=O)O)cc3)cc2s1
- GI50 [1]: > 100 µM
- TGI [1]: > 100 µM
- GI50 [2]: > 100 µM
- TGI [2]: > 100 µM
- GI50 [3]: > 100 µM
- TGI [3]: > 100 µM
- GI50 [4]: > 100 µM
- TGI [4]: > 100 µM
- GI50 [5]: > 100 µM
- TGI [5]: > 100 µM
- GI50 [6]: > 100 µM
- TGI [6]: > 100 µM
- GI50 [7]: > 100 µM
- TGI [7]: > 100 µM
- GI50 [8]: > 100 µM
- TGI [8]: > 100 µM
- GI50 [9]: > 100 µM
- TGI [9]: > 100 µM
- GI50 [59]: > 100 µM
- TGI [59]: > 100 µM
- GI50 [10]: > 100 µM
- TGI [10]: > 100 µM
- GI50 [11]: > 100 µM
- TGI [11]: > 100 µM
- GI50 [12]: > 100 µM
- TGI [12]: > 100 µM
- GI50 [13]: > 100 µM
- TGI [13]: > 100 µM
- GI50 [14]: > 100 µM
- TGI [14]: > 100 µM
- GI50 [15]: > 100 µM
- TGI [15]: > 100 µM
- GI50 [16]: > 100 µM
- TGI [16]: > 100 µM
- GI50 [17]: > 100 µM
- TGI [17]: > 100 µM
- GI50 [18]: > 100 µM
- TGI [18]: > 100 µM
- GI50 [20]: > 100 µM
- TGI [20]: > 100 µM
- GI50 [21]: > 100 µM
- TGI [21]: > 100 µM
- GI50 [22]: > 100 µM
- TGI [22]: > 100 µM
- GI50 [23]: > 100 µM
- TGI [23]: > 100 µM
- GI50 [24]: > 100 µM
- TGI [24]: > 100 µM
- GI50 [25]: > 100 µM
- TGI [25]: > 100 µM
- GI50 [26]: > 100 µM
- TGI [26]: > 100 µM
- GI50 [27]: > 100 µM
- TGI [27]: > 100 µM
- GI50 [28]: > 100 µM
- TGI [28]: > 100 µM
- GI50 [29]: > 100 µM
- TGI [29]: > 100 µM
- GI50 [30]: > 100 µM
- TGI [30]: > 100 µM
- GI50 [31]: > 100 µM
- TGI [31]: > 100 µM
- GI50 [32]: > 100 µM
- TGI [32]: > 100 µM
- GI50 [33]: > 100 µM
- TGI [33]: > 100 µM
- GI50 [34]: > 100 µM
- TGI [34]: > 100 µM
- GI50 [35]: > 100 µM
- TGI [35]: > 100 µM
- GI50 [36]: > 100 µM
- TGI [36]: > 100 µM
- GI50 [37]: > 100 µM
- TGI [37]: > 100 µM
- GI50 [38]: > 100 µM
- TGI [38]: > 100 µM
- GI50 [39]: > 100 µM
- TGI [39]: > 100 µM
- GI50 [40]: > 100 µM
- TGI [40]: > 100 µM
- GI50 [41]: > 100 µM
- TGI [41]: > 100 µM
- GI50 [42]: > 100 µM
- TGI [42]: > 100 µM
- GI50 [43]: > 100 µM
- TGI [43]: > 100 µM
- GI50 [44]: > 100 µM
- TGI [44]: > 100 µM
- GI50 [45]: > 100 µM
- TGI [45]: > 100 µM
- GI50 [46]: > 100 µM
- TGI [46]: > 100 µM
- GI50 [47]: > 100 µM
- TGI [47]: > 100 µM
- GI50 [48]: > 100 µM
- TGI [48]: > 100 µM
- GI50 [49]: > 100 µM
- TGI [49]: > 100 µM
- GI50 [50]: > 100 µM
- TGI [50]: > 100 µM
- GI50 [51]: > 100 µM
- TGI [51]: > 100 µM
- GI50 [52]: > 100 µM
- TGI [52]: > 100 µM
- GI50 [53]: > 100 µM
- TGI [53]: > 100 µM
- GI50 [54]: > 100 µM
- TGI [54]: > 100 µM
- GI50 [55]: > 100 µM
- TGI [55]: > 100 µM
- GI50 [56]: > 100 µM
- TGI [56]: > 100 µM
- GI50 [57]: > 100 µM
- TGI [57]: > 100 µM
- GI50 [58]: > 100 µM
- TGI [58]: > 100 µM
